4 molecules from ChEMBL document CHEMBL1134903, “Synthesis and SAR of azalide 3,6-ketal aromatic derivatives as potent Gram-positive and Gram-negative antibacterial agents” (Bioorg Med Chem Lett, 2002) can be followed below.

In brackets after ≈: the same amount, converted by molar mass.

What all share (assay type): functional
One test concerns Escherichia coli. Nature of the test: Minimum inhibitory concentration against Escherichia coli.
The next test deals with Pasteurella multocida. In words: Minimum inhibitory concentration against Pasteurella multocida.
For test [1], the system named is Staphylococcus aureus. In words: Colony forming units of Staphylococcus aureus intramammary infection (IMI) model was determined at a dose of 15 mg/kg.
Test [2] relates to Staphylococcus aureus. Nature of the test: Effective dose required to inhibit Staphylococcus aureus intraperitoneal (IP) infection model.
The test system of test [3] is Staphylococcus aureus. In words: Minimum inhibitory concentration against Staphylococcus aureus.

Regarding `CC[C@H]1OC(=O)[C@H](C)[C@H]2OC3(CCN(C(=O)c4ccnc5ccccc45)CC3)O[C@](C)(C[C@@H](C)CN(C)[C@H](C)[C@@H](O)[C@]1(C)O)[C@H](O[C@@H]1O[C@H](C)C[C@H](N(C)C)[C@H]1O)[C@H]2C`, the MIC (commonly the lowest concentration that inhibits growth of the organism) was 6.25 µg/mL (≈ 7.56 µM) in the test with Escherichia coli, 0.1 µg/mL (≈ 0.121 µM) against Pasteurella multocida and 0.39 µg/mL (≈ 0.472 µM) against Staphylococcus aureus [3]. The “Log CFU” value in the test on Staphylococcus aureus [1] is recorded as 2.5. Further, the 50% effective dose (ED50) (usually the midpoint of the dose-response relation) with Staphylococcus aureus [2] was 20 mg/kg.

As to `CC[C@H]1OC(=O)[C@H](C)[C@H]2OC3(CCN(C(=O)c4ccnc5ccccc45)CC3)O[C@](C)(C[C@@H](C)CN[C@H](C)[C@@H](O)[C@]1(C)O)[C@H](O[C@@H]1O[C@H](C)C[C@H](N(C)C)[C@H]1O)[C@H]2C`, the results for the MIC against Escherichia coli, in the test on Pasteurella multocida and with Staphylococcus aureus [3] were 6.25 µg/mL (≈ 7.69 µM), 0.1 µg/mL (≈ 0.123 µM) and 0.39 µg/mL (≈ 0.48 µM), respectively. For the same molecule, the “Log CFU” value in the test on Staphylococcus aureus [1] is recorded as 1.9. In the test on Staphylococcus aureus [2], the ED50 was 7.6 mg/kg.

Turning to `CC[C@H]1OC(=O)[C@H](C)[C@H]2OC3(CCN(CCc4ccc(OC)cc4)CC3)O[C@](C)(C[C@@H](C)CN(C)[C@H](C)[C@@H](O)[C@]1(C)O)[C@H](O[C@@H]1O[C@H](C)C[C@H](N(C)C)[C@H]1O)[C@H]2C`, the MIC was found to be 0.39 µg/mL (≈ 0.484 µM) against Escherichia coli, 0.03 µg/mL (≈ 0.0372 µM) against Pasteurella multocida and 0.39 µg/mL (≈ 0.484 µM) with Staphylococcus aureus [3]. In the test on Staphylococcus aureus [1], the “Log CFU” value is on record as 9.7. The median effective dose (ED50) with Staphylococcus aureus [2] was > 20 mg/kg.

Turning to `CC[C@H]1OC(=O)[C@H](C)[C@@H](O[C@H]2C[C@@](C)(OC)[C@@H](O)[C@H](C)O2)[C@H](C)[C@@H](O[C@@H]2O[C@H](C)C[C@H](N(C)C)[C@H]2O)[C@](C)(O)C[C@@H](C)CN(C)[C@H](C)[C@@H](O)[C@]1(C)O` [AZITHROMYCIN], the minimum inhibitory concentration (MIC) was 1.56 µg/mL (≈ 2.08 µM) with Escherichia coli, 0.1 µg/mL (≈ 0.134 µM) with Pasteurella multocida and 0.2 µg/mL (≈ 0.267 µM) in the test with Staphylococcus aureus [3]. Further, the “Log CFU” value in the test with Staphylococcus aureus [1] is given as 2.8. For the same molecule, the 50% effective dose (ED50) in the test on Staphylococcus aureus [2] worked out at 4.1 mg/kg.
